From patent US11279733B2, “Peptide antibiotics” (priority 2017, dated 2022) come the findings set out here.

Where two headings read alike, the source gives them in different places.

By CC50 is commonly meant the concentration giving 50% cytotoxicity.

Series [1] concerns HepG2 cells. Briefly: Cytotoxicity, resazurin assay, HepG2. The gist of the method:
(§1)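 Fluorescence read-out (excitation 560, emission 590) after a 2 h, 37 °C incubation with 5 μM resazurin, following 24 h compound treatment of cells plated at 4000 per well. CC50 values come from fitting dose–response curves of growth inhibition.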

The test system of series [2] is Neisseria gonorrhoeae. Briefly: MIC determination, Neisseria gonorrhoeae. In kind it is cell-based. The gist of the method:
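Mid-log cultures grown in Mueller Hinton broth at 37° C were tested by 2-fold broth microdilution at 5×10^5 CFU/mL final. Compounds were dissolved in water and tested over a final range of 32 to 0.015 μg/mL.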

Series [3] deals with HEK293 cells. Briefly: Cytotoxicity, resazurin assay, HEK293. The gist of the method: as §1
(Resazurin is reduced to fluorescent resorufin, in cell work by metabolically active cells.)

Consider “polymyxin B sulfate [PolymyxinB, reference compound]”, for which the CC50 in series [1] (read-out: Hep G2-CC50, HepG2, 24 h) was more than 300 µM; in series [1] (read-out: Hep G2-CC50, HepG2 cells) it was more than 300 µM; in series [1] (read-out: Hep G2-CC50, Table 5, HepG2 cells), more than 300 µM; in series [1] (read-out: Hep G2-CC50, Table 6, HepG2 cells), more than 300 µM; in series [1] (read-out: Hep G2 CC50, HepG2 cells), more than 300 µM; in series [3] (read-out: HEK-293-CC50, HEK293, 24 h), more than 300 µM. The CC50 in series [3] (read-out: HEK-293-CC50, HEK293 cells) is more than 300 µM; in series [3] (read-out: HEK-293-CC50, Table 5, HEK293 cells) it was more than 300 µM; in series [3] (read-out: HEK-293-CC50, Table 6, HEK293 cells), more than 300 µM; in series [3] (read-out: HEK-293 CC50, HEK293 cells), more than 300 µM. The “MIC N. gonorrhoeae F89” value in series [2] (strain F89) was found to be 9.38 µg/mL. For the same substance, the “MIC N. gonorrhoeae FA19 ATCC BAA-1838” value in series [2] (strain FA19 ATCC BAA-1838) stood at 12.5 µg/mL. Besides, the “MIC N. gonorrhoeae FA1090 A25 ATCC 700825” value in series [2] (strain FA1090 A25 ATCC 700825) was 10.42 µg/mL. Also, in series [2] (strain H041), the “MIC N. gonorrhoeae H041” value turned out to be 8.33 µg/mL.
